Measured values reported in patent US10253323B2, “Chloroplast transit peptides” (priority 2015, dated 2019).
Entries after “also recorded” stand apart in the source; their conditions may differ.

Legend:
[1] = test system: chloroplasts of the tobacco leaf tissues; assay: Tobacco transient assay, confocal microscopy of TraP-YFP/GFP; assay type: cell-based, Nicotiana tabacum; settings: TraP-YFP or TraP-GFP fusion, Agrobacterium-infiltrated tobacco leaf tissue
Text: The above described chimeric chloroplast transit peptide sequences were initially tested via a transient in planta assay. Polynucleotide sequences which encode the TraP10 (SEQ ID NO:9), TraP11 (SEQ ID NO:10), TraP17 (SEQ ID NO:11), TraP18 (SEQ ID NO:12), TraP19 (SEQ ID NO:13), TraP26 (SEQ ID NO:14), TraP27 (SEQ ID NO:15), and TraP28 (SEQ ID NO:16), chimeric chloroplast transit peptide sequences were synthesized. A linker sequence (SEQ ID NO:17) was incorporated between the TraP sequence and the yfp coding sequence of TraP10 and TraP11. The resulting constructs contained two plant transcription units (PTU). The first PTU was comprised of the Arabidopsis thaliana Ubiquitin 10 promoter (AtUbi10 promoter; Callis, et al., (1990) J. Biol. Chem., 265: 12486-12493), TraP-yellow fluorescent protein fusion gene (TraP-YFP; US Patent App. 2007/0298412) or the TraP-green fluorescent protein fusion gene (TraP-GFP; Sheen et al., (1995) Plant J., 8(5): 777-84), and Agrobacterium tumefaciens ORF 23 3′ untranslated region (AtuORF23 3′UTR; U.S. Pat. No. 5,428,147). The second PTU was comprised of the Cassava Vein Mosaic Virus promoter (CsVMV promoter; Verdaguer et al., (1996) Plant Molecular Biology, 31: 1129-1139), phosphinothricin acetyl transferase (PAT; Wohlleben et al., (1988) Gene, 70: 25-37) or DSM-II (International Patent App. 2008070845), and Agrobacterium tumefaciens ORF 1 3′ untranslated region (AtuORF1 3′UTR; Huang et al., (1990) J. Bacteriol., 172: 1814-1822). Construct pDAB101979 contains the TraP10 chimeric chloroplast transit peptide (FIG. 3). Construct pDAB101980 contains the TraP11 chimeric chloroplast transit peptide (FIG. 4). Construct pDAB107634 contains the TraP17 chimeric chloroplast transit peptide (FIG. 5). Construct pDAB107635 contains the TraP18 chimeric chloroplast transit peptide (FIG. 6). Construct pDAB107636 contains the TraP19 chimeric chloroplast transit peptide (FIG. 7). Construct pDAB109847 contains the TraP26 chimeric chloroplast transit peptide (FIG. 8). Construct pDAB109848 contains the TraP27 chimeric chloroplast transit peptide (FIG. 9). Construct pDAB109849 contains the TraP28 chimeric chloroplast transit peptide (FIG. 10). […] The constructs were confirmed via restriction enzyme digestion and sequencing. Finally, the constructs were transformed into Agrobacterium tumefaciens and stored as glycerol stocks.
From an Agrobacterium glycerol stock, a loop full of frozen culture was inoculated into 2 ml of Yeast-extract Peptone Dextrose (100 μg/ml spectinomycin) in a 14 ml sterile tube. The inoculated media was incubated at 28° C. overnight with shaking at 200 rpm. The following day about 100 μl of the culture was used to inoculate 25 ml of YPD (100 μg/ml spectinomycin) in a 125 ml sterile tri-baffled flask, and incubated overnight at 28° C. overnight with shaking at 200 rpm. The following day the cultures were diluted to an OD600 of 0.5 in sterile ddH2O (pH 8.0). The diluted Agrobacterium strain was mixed with a second Agrobacterium strain containing the P19 helper protein at a ratio of 1:1. The culture were used for tobacco leaf infiltration via the Voinnet method. Voinnet O, Rivas S, Mestre P, and Baulcombe D, (2003) An enhanced transient expression system in plants based on suppression of gene silencing by the p19 protein of tomato bushy stunt virus. The Plant Journal, 33: 949-956. Infiltrated tobacco plants were placed in a Conviron™ set at 16 hr of light at 24° C. for at least three days until being assayed.
Agrobacterium-infiltrated tobacco leaves were severed from the plant, and placed into a petri-dish with water to prevent dehydration. The infiltrated tobacco leaves were observed under blue light excitation with long-pass filter glasses held in place using a Dark Reader Hand Lamp™ (Clare Chemical Research Co.; Dolores, Colo.) to identify undamaged areas of the leaf that were successfully expressing the YFP or GFP reporter proteins. […]

[2] = test system: infiltrated tobacco cells; assay: Western blot of infiltrated tobacco plants; assay type: cell-based, Nicotiana tabacum; settings: infiltrated tobacco leaf tissue
Protocol: Samples of the infiltrated tobacco plants were assayed via Western blotting. Leaf punches were collected and subjected to bead-milling. About 100-200 mg of leaf material was mixed with 2 BBs (Daisy; Rogers, Ark.) and […] of PBST for 3 minutes in a Kleco™ bead mill. The samples were then spun down in a centrifuge at 14,000× g at 4° C. The supernatant was removed and either analyzed directly via Western blot or immunoprecipitated. The immunoprecipitations were performed using the Pierce Direct IP Kit™ (Thermo Scientific; Rockford, Ill.) following the manufacturer's protocol. Approximately, 50 μg of anti-YFP or anti-GFP was bound to the resin. The samples were incubated with the resin overnight at 4° C. Next, the samples were washed and eluted the following morning and prepped for analysis by combining equal volumes of 2×8M Urea sample buffer and then boiling the samples for 5 minutes. The boiled samples were run on a 4-12% SDS-Bis Tris gel in MOPS buffer for 40 minutes. The gel was then blotted using the Invitrogen iBlot™ (Life Technologies; Carlsbad, Calif.) following the manufacturer's protocol. The blotted membrane was blocked for 10 minutes using 5% non-fat dry milk in PBS-Tween® solution. The membrane was probed with the primary antibody (monoclonal anti-GFP or anti-YFP in rabbit) used at a 1:1000 dilution in the 5% non-fat dry milk in PBS-Tween® solution for 1 hour. Next, the membrane was rinsed three times for five minutes with PBS-Tween® to remove all unbound primary antibody. The membrane was probed with a secondary monoclonal anti-rabbit in goat antibody (Life Technologies) used at a 1:1000 dilution, for 60 minutes. The membrane was washed as previously described and developed by adding Themo BCIP/NBT™ substrate. The colormetric substrate was allowed to develop for 5-10 minutes and then the blots were rinsed with water before being dried.

[3] = test system: dgt-28 transformed T1 Arabidopsis; assay: Glyphosate tolerance of dgt-28 transformed T1 Arabidopsis; assay type: in vivo, Arabidopsis thaliana; settings: dgt-28 linked with the chloroplast transit peptide, T1 Arabidopsis
Protocol: The Arabidopsis T1 transformants (from transformation with pDAB114286 or pDAB114287) were first selected from the background of untransformed seed using a glufosinate selection scheme. Three flats or 50,000 seed were analyzed for each T1 construct. The selected T1 plants were molecularly characterized (as described above) and events with a range of copy number were sprayed with various rates of commercial glyphosate.
Transgenic T1 Arabidopsis plants containing the dgt-28 transgene were sprayed with differing rates of glyphosate. Elevated rates were applied in this study to determine the relative levels of resistance (420, 840, 1,680 or 3,360 g ae/ha). The typical 1× field usage rate of glyphosate is 1120 g ae/ha. The response of these plants is presented in terms of % visual injury 2 weeks after treatment (WAT). The T1 Arabidopsis plants that were used in this study were of variable copy number for the dgt-28 transgene. The low copy dgt-28 T1 Arabidopsis plants were self-pollinated and used to produce T2 plants.
An arithmetic mean and standard deviation is presented for each construct used for Arabidopsis transformation. The range in individual response is also indicated in the last column for each rate and transformation. Wildtype, non-transformed Arabidopsis thaliana c.v. Columbia served as a glyphosate sensitive control.

[4] = test system: chloroplasts of the maize protoplasts; assay: Maize protoplast transient assay, microscopy of TraP-GFP; assay type: cell-based, Zea mays c.v. B104; settings: TraP-GFP fusion, transfected maize protoplasts, microscopy after 12 hours
Protocol: Seed of Zea mays c.v. B104 were surface sterilized by shaking vigorously in 50% Clorox™ (3% sodium hypochlorite), containing 2-3 drops of Tween® 20, for about 20 minutes. The seeds were rinsed thoroughly with sterile distilled water. The sterile seed were plated onto ½ MS medium in Phytatrays or similar type boxes, and allowed to grow in the dark (28° C.) for 12 to 20 days. A maize protoplast transient assay was used to obtain and transfect maize protoplasts from leaves of Zea mays c.v. B104. This maize protoplast assay is a modification of the system described by Yoo, S.-D., Cho, Y.-H., and Sheen, J., (2007), Arabidopsis Mesophyll Protoplasts: A Versitile Cell System for Transient Gene Expression Analysis, Nature Protocols, 2: 1565-1572. The solutions were prepared as described by Yoo et. al., (2007), with the exception that the mannitol concentration used for the following experiments was change to 0.6 M.
Transfection of 100 to 500 μl of protoplasts (1-5×10^5 cells) was completed by adding the protoplasts to a 2 ml microfuge tube containing about 40 μg of plasmid DNA, at room temperature. The volume of DNA was preferably kept to about 10% of the protoplast volume. The protoplasts and DNA were occasionally mixed during a 5 minute incubation period. An equal volume of PEG solution was slowly added to the protoplasts and DNA, 2 drops at a time with mixing in between the addition of the drops of PEG solution. The tubes were allowed to incubate for about 10 minutes with occasional gentle mixing. Next, 1 ml of W5+ solution was added and mixed by inverting the tube several times. The tube(s) were centrifuged for 5 minutes at 75× g at a temperature of 4° C. Finally, the supernatant was removed and the pellet was resuspended in 1 ml of WI solution and the protoplasts were placed into a small petri plate (35×10 mm) or into 6-well multiwell plates and incubated overnight in the dark at room temperature. Fluorescence of GFP was viewed by microscopy after 12 hours of incubation. The microscopy conditions similar to those previously described were used for the imaging.

Molecule	translocation of YFP or GFP fluorescent protein into chloroplasts [1]	translocation of YFP or GFP fluorescent protein into chloroplasts ([1]; listed as TraP28-GFP)	TraP processed and cleaved from the YFP or GFP protein [2]	translocation of YFP or GFP fluorescent protein into chloroplasts ([1]; listed as TraP26-GFP)	protection to glyphosate [3]	translocation of YFP or GFP fluorescent protein into chloroplasts ([1]; listed as TraP17-GFP)	translocation of GFP fluorescent protein into chloroplasts [4]	translocation of GFP fluorescent protein into chloroplasts ([4]; listed as TraP17-GFP)	translocation of YFP or GFP fluorescent protein into chloroplasts ([1]; listed as TraP10-YFP)
TraP28: synthetic chloroplast transit peptide, SEQ ID NO:8; tested fused to GFP (pDAB109849) (MAVQSNMICAGVANPFVSPNLSKTRASKSVYSVLGTRLNSSARGKKSAMPLIGNRVPVSA; TraP28)	accumulated within the chloroplasts; also recorded: successfully targeted GFP to tobacco chloroplasts	translocated into the chloroplasts	processed and cleaved from the YFP or GFP protein						
TraP26: synthetic chloroplast transit peptide, SEQ ID NO:6; tested fused to GFP (pDAB109847) (MAQVSMIPNAIQAPCSISLSKSQAGKSVRKVSLKPNQHAAWGLRRSGMRVGNPEVVVSAS; TraP26)	accumulated within the chloroplasts; also recorded: successfully targeted GFP to tobacco chloroplasts		processed and cleaved from the YFP or GFP protein	translocated into the chloroplasts	provide protection to glyphosate				
TraP17: chimeric chloroplast transit peptide, SEQ ID NO:3; N-terminus Calystegia, C-terminus Chlamydamonas reinhardtii; tested fused to GFP (pDAB107634) (protein, TraP17) MAQVNNMMQGLRLSPSNLSKPQTPLPSHSLLLGSNSLKNSVSASSVAPAPACSAPAGAGRRAVVVR	did not translocate YFP fluorescent proteins into the chloroplasts of tobacco					did not translocate into the chloroplasts	did translocate YFP fluorescent proteins into the chroroplasts of maize; also recorded: accumulated within the chloroplasts; also recorded: successfully targeted GFP to maize chloroplasts	translocated into the chloroplasts	
TraP10: chimeric chloroplast transit peptide, SEQ ID NO:1; N-terminus Brassica napus, C-terminus Glycine max EPSPS; tested fused to YFP (pDAB101979) (protein, TraP10) MAQSSRICHGVQNPCVIISNLSKSNQNKSPFSVSLRPRLWGASKSRIPMHKNGSFMGNFNVGKGNSGVFKVS	accumulated within the chloroplasts; also recorded: successfully targeted YFP to tobacco chloroplasts		processed and cleaved from the YFP or GFP protein						translocated into the chloroplasts
